Test system: 242566-281-R-J2-PDC complex spheroid viability
Experiment: Anticancer human tumor 242566-281-R-J2-PDC patient-derived pancreatic carcinoma cell line growth inhibition [CLK]
Conditions: for IC50: curve of first compound; for viability, T/C: stronger effect = lower value
Source text: A high-throughput screen of multi-cell type tumor spheroids was designed to identify active combinations of […] and targeted small molecules. Complex spheroids include a stromal component modeled by human endothelial cells (HUVEC) and fibroblasts modeled by human mesenchymal stem cells (MSCs). The concentration ranges selected for each drug and investigational agent were based upon clinically achievable concentrations if the clinical Cmax of the agent was known.
Compounds. The drugs and investigational agents: cirtuvivint (SM08502; NSC835563), CC-671 (NSC850746), vemurafenib (NSC761431), tapotoclax (NSC804041), sotorasib (NSC818433), adagrasib (NSC831453), MRTX-1133 (NSC836407), BAY2416964 (NSC825713), copanlisib (NSC816437), inavolisib (NSC800729), abemaciclib (NSC768073), osimertinib (NSC779217), entinostat (NSC756642), eltanexor (KPT-8602, NSC794443), venetoclax (NSC766270), ceralasertib (NSC777638), bortezomib (NSC756655), olaparib (NSC753686), talazoparib (NSC767125), alisertib (NSC759677), peposertib (NSC802822), gemcitabine (NSC613327), 5-fluorouracil (NSC19893), SN-38 (NSC673596), oxaliplatin (NSC266046), paclitaxel (NSC125973), and doxorubicin (NSC123127), were obtained from the National Cancer Institute (NCI) Developmental Therapeutics Program Chemical Repository. The FDA-approved anticancer drug set is available from the Developmental Therapeutics Program at https://dtp.cancer.gov/organization/dscb/obtaining/available plates.htm. […] The stock solutions were prepared in dimethyl sulfoxide (DMSO, Sigma-Aldrich, St. Louis, MO, cat. D2650), except for the platinum complexes which were prepared in saline (Quality Biological, Gaithersburg, MD, cat. 114-055-101), at 800-fold the tested concentration and stored at -70 degrees C prior to their use. All drugs and investigational agents were tested over a range starting from a high concentration at or near the clinical Cmax and decreasing in half-log increments. If the clinical Cmax for an agent had not been determined, the highest concentration tested was 10 microM.
Cell Culture. All cells were maintained in an incubator at 37 degrees C and 5% CO2 with 95% humidity. The PDC lines were cultured according to standard operating procedures established by the NCI PDMR. Briefly, all PDCs were thawed and cultured in Matrigel-coated flasks prepared with a working solution of 1X Ham's F-12 nutrient mix, without supplementation (Invitrogen, Waltham, MA, cat. 11765054), 100 U/mL penicillin-streptomycin (Invitrogen, cat. 15140122), and 2.5% Matrigel (Corning Inc., Corning, NY, cat. 354248) for the first three passages. The 947758-054-R-J2-PDC line was cultured in 6B/Colon 1A media, which includes advanced DMEM/F-12 (Thermo Fisher Scientific, cat. 12634028), 10 mM HEPES (Thermo Fisher Scientific, cat. 15630080), 1X GlutaMAX supplement (Thermo Fisher Scientific, cat. 35050061), 0.1 mg/mL primocin (InvivoGen, cat. ant-pm-2), 10% defined fetal bovine serum, heat inactivated (HyClone Laboratories Inc., cat. SH30070.03HI), 1.25 mM N-Acetyl-L-cysteine (Sigma-Aldrich, cat. A9165), 10 mM nicotinamide (Sigma-Aldrich, cat. N0636), 1X B-27 supplement (Thermo Fisher Scientific, cat. 17504044), 1X N-2 supplement (Thermo Fisher Scientific, cat. 17502048), and 10 microM Y-27632 dihydrochloride (Tocris Bioscience, cat. 1254). The 876862-298-R-J1-PDC was cultured in 6E media, which includes all 6B/Colon 1A media components plus 50% L-WRN conditioned media (ATCC, cat. CRL-3276), 50 ng/mL recombinant human EGF recombinant protein (hEGF; Thermo Fisher Scientific, cat. PHG0311), 10 ng/mL recombinant human fibroblast growth factor 10 (hGFG-10; PeproTech, cat. 100-26), 1 ng/mL recombinant human fibroblast growth factor 2 (hFGF-2; PeproTech, cat. 100-18B), and 1 µM prostaglandin E2 (PGE2; Tocris, cat. 2296). The 227483-062-R1-J1-PDC line was cultured in Panc media, containing all 6E components except hFGF-2, with the addition of 500 nM SB-431542 (Selleckchem, cat. S1067) and 10 nM gastrin (Tocris, cat. 3006). […]

[1] = second compound 0.0316 µM, first compound 0.0316 µM
[2] = second compound 0.0316 µM, first compound 0.1 µM
[3] = second compound 0.0316 µM, first compound 0.316 µM
[4] = second compound 0.0316 µM, first compound 1 µM
[5] = second compound 0.0316 µM, first compound 3.16 µM
[6] = second compound 0.0316 µM, first compound 10 µM
[7] = second compound 0.1 µM, first compound 0.0316 µM
[8] = second compound 0.1 µM, first compound 0.1 µM
[9] = second compound 0.1 µM, first compound 0.316 µM
[10] = second compound 0.1 µM, first compound 1 µM
[11] = second compound 0.1 µM, first compound 3.16 µM
[12] = second compound 0.1 µM, first compound 10 µM
[13] = second compound 0.316 µM, first compound 0.0316 µM
[14] = second compound 0.316 µM, first compound 0.1 µM
[15] = second compound 0.316 µM, first compound 0.316 µM
[16] = second compound 0.316 µM, first compound 1 µM
[17] = second compound 0.316 µM, first compound 3.16 µM
[18] = second compound 0.316 µM, first compound 10 µM
[19] = second compound 1 µM, first compound 0.0316 µM
[20] = second compound 1 µM, first compound 0.1 µM
[21] = second compound 1 µM, first compound 0.316 µM
[22] = second compound 1 µM, first compound 1 µM
[23] = second compound 1 µM, first compound 3.16 µM
[24] = second compound 1 µM, first compound 10 µM
[25] = second compound 3.16 µM, first compound 0.0316 µM
[26] = second compound 3.16 µM, first compound 0.1 µM
[27] = second compound 3.16 µM, first compound 0.316 µM
[28] = second compound 3.16 µM, first compound 1 µM
[29] = second compound 3.16 µM, first compound 3.16 µM
[30] = second compound 3.16 µM, first compound 10 µM
[31] = second compound 10 µM, first compound 0.0316 µM
[32] = second compound 10 µM, first compound 0.1 µM
[33] = second compound 10 µM, first compound 0.316 µM
[34] = second compound 10 µM, first compound 1 µM
[35] = second compound 10 µM, first compound 3.16 µM
[36] = second compound 10 µM, first compound 10 µM
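Note: spheroids exposed to compounds for 7 days before readout.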
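Throughout, for viability, T/C: 100% = DMSO vehicle control wells.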

CCCS(=O)(=O)Nc1ccc(F)c(C(=O)c2c[nH]c3ncc(-c4ccc(Cl)cc4)cc23)c1F + CN1CCN(c2cc(C(=O)Nc3cc4cc(-c5cnn(C)c5)ccc4cn3)ccn2)CC1
IC50 (second compound 0.0316 µM): 5800 nM | IC50 (second compound 0.1 µM): 5580 nM | IC50 (second compound 0.316 µM): < 31.6 nM | IC50 (second compound 1 µM): < 31.6 nM | IC50 (second compound 3.16 µM): < 31.6 nM | IC50 (second compound 10 µM): < 31.6 nM | viability, T/C [1]: 98.8% | viability, T/C [2]: 93.1% | viability, T/C [3]: 96.3% | viability, T/C [4]: 126% | viability, T/C [5]: 97.3% | viability, T/C [6]: 7.56% | viability, T/C [7]: 84.8% | viability, T/C [8]: 102% | viability, T/C [9]: 87.5% | viability, T/C [10]: 109% | viability, T/C [11]: 89.6% | viability, T/C [12]: 8.92% | viability, T/C [13]: 42.3% | viability, T/C [14]: 44.7% | viability, T/C [15]: 45.2% | viability, T/C [16]: 40.5% | viability, T/C [17]: 33.1% | viability, T/C [18]: 8.52% | viability, T/C [19]: 4.91% | viability, T/C [20]: 5.46% | viability, T/C [21]: 4.96% | viability, T/C [22]: 5.32% | viability, T/C [23]: 5.68% | viability, T/C [24]: 5.62% | viability, T/C [25]: 7.02% | viability, T/C [26]: 8.45% | viability, T/C [27]: 6.23% | viability, T/C [28]: 8.2% | viability, T/C [29]: 10.1% | viability, T/C [30]: 9.62% | viability, T/C [31]: 2.81% | viability, T/C [32]: 2.91% | viability, T/C [33]: 2.02% | viability, T/C [34]: 2.43% | viability, T/C [35]: 2.11% | viability, T/C [36]: 1.29%

COC1C=CCC(C)C(C)S(=O)(=O)NC(=O)c2ccc3c(c2)N(CC2CCC21)CC1(CCCc2cc(Cl)ccc21)CO3 (centres undefined) + CN1CCN(c2cc(C(=O)Nc3cc4cc(-c5cnn(C)c5)ccc4cn3)ccn2)CC1
IC50 (second compound 0.0316 µM): 5300 nM | IC50 (second compound 0.1 µM): 3440 nM | IC50 (second compound 0.316 µM): < 31.6 nM | IC50 (second compound 1 µM): < 31.6 nM | IC50 (second compound 3.16 µM): < 31.6 nM | IC50 (second compound 10 µM): < 31.6 nM | viability, T/C [1]: 93% | viability, T/C [2]: 119% | viability, T/C [3]: 101% | viability, T/C [4]: 81.6% | viability, T/C [5]: 78.9% | viability, T/C [6]: 20.3% | viability, T/C [7]: 93.2% | viability, T/C [8]: 94.1% | viability, T/C [9]: 87.8% | viability, T/C [10]: 66.6% | viability, T/C [11]: 56.6% | viability, T/C [12]: 16.5% | viability, T/C [13]: 37.5% | viability, T/C [14]: 34.1% | viability, T/C [15]: 28.7% | viability, T/C [16]: 16.1% | viability, T/C [17]: 12.8% | viability, T/C [18]: 3.62% | viability, T/C [19]: 4.66% | viability, T/C [20]: 4.57% | viability, T/C [21]: 3.7% | viability, T/C [22]: 4.79% | viability, T/C [23]: 3.13% | viability, T/C [24]: 2.17% | viability, T/C [25]: 7.61% | viability, T/C [26]: 7.11% | viability, T/C [27]: 6.63% | viability, T/C [28]: 7.11% | viability, T/C [29]: 6.71% | viability, T/C [30]: 4.96% | viability, T/C [31]: 1.98% | viability, T/C [32]: 1.96% | viability, T/C [33]: 1.79% | viability, T/C [34]: 1.93% | viability, T/C [35]: 1.82% | viability, T/C [36]: 0.48%
